Test [1] deals with elastin, collagen, and caspase-3 proteins. In words: Western blot of elastin, collagen and caspase-3 in chronic obstructive pulmonary disease-induced mice. The settings on record: COPD induced 30 or 60 days; oral 250 μg/kg/day for the last 15 or 30 days; FIGS. 17 and 18. The class given is in vivo. As to the method:
(§1) Eight-week-old female […] mice (Orient Bio Korea Inc., Korea) having no certain pathogen were accommodated in an aseptic laminar-flow cabinet, and bred by supplying a standard solid feed ad libitum. When the following experiment was performed, the mice were made to correspond to 7- to 8-weeks old, and all laboratory animals were managed according to the protocol approved by the Institutional Animal Care and Use Committee of the Chonbuk National University Medical School.
Then, the mixed solution was intranasally administered to the mice of Preparative Example 1 once a day for 30 days or 60 days from the experimental starting date. Here, a group to which only physiological saline was intranasally administered and a group to which a solution obtained by mixing 0.25 μg of LPS with 50 μL of a 10% DMSO solution was administered were used as the controls.
A tissue was extracted from each of the mice manufactured in Experimental Method 1, and finely ground to a cell level. Thereafter, the cells were lysed in a cell lysis buffer containing a protease inhibitor to obtain a cell lysate. The cell lysate was centrifuged to obtain protein. Then, an equivalent amount of the proteins obtained from the cells were loaded on an SDS-PAGE gel and electrophoresed. […] The PVDF membrane was washed three times with a TBS-T buffer, and visualized and quantified using an ECL Western blotting detection reagent. […]
On the technique in general: A western blot detects proteins with antibodies after separation by electrophoresis.

Test [2] deals with asthma-induced mice. As to the kind of experiment: Lung tissue staining, degree of inflammation (grades 0 to 3), asthma-induced mice. The test is classed as in vivo. The settings on record: for inflammation score (lung tissue, grades 0 to 3): asthma-induced mice, 48 hours after secondary challenge, OVA group score 3, FIG. 6. As to the method:
as §1
Also, on days 21 and 28 from the experimental starting date, the mice were put into a plastic box (Plexiglas (Rohm & Haas, Philadelphia, Pa.) exposure chamber; 24.5 cm×40.5 cm×15.0 cm), and 1.5% ovalbumin was evaporated using an ultrasonic nebulizer (NE-U12; output 0.8 mL/min; Omron, Japan), and injected into the box for 30 minutes so that the mice inhaled the evaporated ovalbumin (secondary challenge).
A tissue was extracted from each of the mice manufactured in Experimental Method 1, and put into a 10% formalin solution, and reacted for 24 hours to prepare a paraffin block. Thereafter, the paraffin block was microtomed into slices with a size of 3 μm, and each of the slices was attached onto a slide, and heamatoxylin-eosin IHE staining was performed. Then, the slices were observed using a microscope. Here, the degree of inflammation was determined by indicating degrees of inflammation around the airway and blood vessels as grades 0 to 3.
0: There are no inflammatory cells;
1: Inflammatory cells are occasionally observed around the airway and blood vessels;
2: Most of the airway and blood vessels are surrounded by approximately 1 to 5 thin bands of inflammatory cells; and
3: Most of the airway and blood vessels are surrounded by thick bands of inflammatory cells (5 or more).
Preparation Example 3 (α,δ-NA-L-G) was orally administered to the asthma-induced mice of Experimental Method 1 at a concentration of 200 or 400 μg/kg/day 30 minutes before a secondary challenge, and the lung tissue was stained using the method described above in Experimental Method 6 48 hours after the secondary challenge, and the inflammation score was measured. The results are shown in A and B of FIG. 6.

Regarding `CC(=O)NC(=O)CC[C@H](NC(C)=O)C(=O)O` [Preparation Example 3, 2,5-diacetamido-5-oxopentanoic acid], in test [1], the “levels of the elastin, collagen, and caspase-3 proteins” value was “decreased to that of the negative control (saline)”. Besides, the “inflammation score (lung tissue, grades 0 to 3)” value in test [2] (oral 200 μg/kg/day) turned out to be 2; in test [2] (oral 400 μg/kg/day) it was 1. Moreover, the “inflammation-relieving effect (lung tissue)” value in test [2] (experiment [5-6], together with siRNA specific to MKP-1, FIG. 15) was “disappeared”. The “degree of inflammation in the lung tissue” value in test [2] (experiment [5-6], without MKP-1 siRNA, FIG. 15) is “inhibited”.

The values above are taken from US20230026277A1, “COMPOSITION FOR PREVENTION, ALLEVIATION, OR TREATMENT OF RESPIRATORY DISEASE” (MICROX CO., LTD., priority 2019, published 2023).
